# Reference: patent publication EP0076430A1, “Compositions having antimicrobial activity” (MEDEA RESEARCH S.r.l., priority 1981, dated 1983)
# Tests used:
# [1] = Toxicity, LD50 by intraperitoneal route; settings: mouse, in vivo, ip, mice
# Indole-positive Proteus [2] = assay: Minimum inhibitory concentration (MIC), broth dilution; assay type: cell-based; settings: 24 h
# Description: (§1) Different bacterial species isolated from patients are employed.
# (§2) Compounds AB5 and AB6 are dissolved in ethanol (ethyl alcohol 95°, C. Erba) and all the subsequent dilutions performed in distilled water. The chlorhexidine is diluted from the commercial product already dissolved in distilled water.
# (§3) The broth dilution is employed to assess MIC values for all strains. Sterile microtiter plates with U bottom with 96 wells are employed. 0.1 Ml of liquid medium (tryptose Roche broth) are put in each well, the plates are kept at -20° and, before use, at room temperature.
# (§4) The disinfectant agent is put in the wells of the row 2 at a concentration of 4000 mcg/ml (real 2000 mcg/ml) and then with a 100 µl micro- pipette dilutions are performed from row 2 to row 11.
# (§5) The row 1 is the control of the medium and the row 12 is the control for the fertility of the medium itself.
# (§6) After having performed the dilutions, 0.01 ml of a 24 hrs bacterial broth culture (previously diluted at 10^-4 for Gram-negative strains and 10-2 for Gram-positive ones) are placed in all wells, from the rows 2 to 12. After the inoculation, the plate is hermetical ly sealed with adhesive transparent band and an hole is done with a needle. The plates are kept at 35° for 24 hours and a macroscopic reading is carried out; in case of non uniform reading, taking place only for chlorhexidine, the cultures from the wells are plated on agar-heart-brain medium (Sclavo) through Dinatech apparatus (head "Inoculum 96") and the reading of the growth is carried out in the following 24 hours.
# Staph. aureus [3] = assay: as above; assay type: cell-based; settings: Staphylococcus aureus, 24 h; strain 2672
# Description: as §1, §2, §3, §4, §5, §6
# Salmonella sp. [4] = assay: as above; assay type: cell-based; settings: 24 h, strain 2482
# Description: as §1, §2, §3, §4, §5, §6
# Bacillaceae = assay: as above; assay type: cell-based; settings: 24 h; strain 1722
# Description: as §1, §2, §3, §4, §5, §6
# Serratia marcescens [5] = assay: as above; assay type: cell-based; settings: 24 h, strain 1814
# Description: as §1, §2, §3, §4, §5, §6
# Enterobacter = assay: as above; assay type: cell-based; settings: 24 h, strain 2643
# Description: as §1, §2, §3, §4, §5, §6
# E.coli = assay: as above; assay type: cell-based; settings: Escherichia coli, 24 h
# Description: as §1, §2, §3, §4, §5, §6
# Pseudomonas aeruginosa [6] = assay: as above; assay type: cell-based; settings: 24 h
# Description: as §1, §2, §3, §4, §5, §6
# Staph. aureus [7] = assay: Bactericide activity at different contact times; assay type: cell-based; parameters: key: + = growth; - = no growth; settings: 100 p.p.m.
# Description: as §1, §2
# (§7) It is assessed through Dinatech apparatus with "Inoculum 96" head.
# (§8) Chemical compounds at established concentra tions are placed in amount of 1 ml in the con tainers, the bacterial inoculum is then added in amount of 0.1 ml (24 hrs culture) and at pre-established times (3,5,10,30,60 and 120 mi nutes), through the head, the mixture compound/ disinfectant agent is transferred in solid medium (agar-heart-brain medium). After incubation at 35°C for 24 hours, the reading is carried out. The tests are repeated in presence of human serum at the concentration of 10%.
# Salmonella sp. [8] = assay: Bactericide activity at different contact times; assay type: cell-based; parameters: key: + = growth; - = no growth; settings: 100 p.p.m.
# Description: as §1, §2, §7, §8
# B. subtilis = assay: Bactericide activity at different contact times; assay type: cell-based; parameters: key: + = growth; - = no growth; settings: 100 p.p.m.
# Description: as §1, §2, §7, §8
# E. coli = assay: Bactericide activity at different contact times; assay type: cell-based; parameters: key to Bactericide action (growth / no growth): + = growth; - = no growth; settings: 100 p.p.m.
# Description: as §1, §2, §7, §8
# Indole-positive Proteus [9] = assay: Bactericide activity at different contact times; assay type: cell-based; parameters: key to Bactericide action (growth / no growth): + = growth; - = no growth; settings: 100 p.p.m.
# Description: as §1, §2, §7, §8
# Serratia marcescens [10] = assay: Bactericide activity at different contact times; assay type: cell-based; parameters: key to Bactericide action (growth / no growth): + = growth; - = no growth; settings: 100 p.p.m.
# Description: as §1, §2, §7, §8
# Pseudomonas aeruginosa [11] = assay: Bactericide activity at different contact times; assay type: cell-based; parameters: key to Bactericide action (growth / no growth) / Bactericide activity (growth / no growth), serum interference test: + = growth; - = no growth
# Description: as §1, §2, §7, §8
smiles,measurement,setting,value
NC(=NI)c1ccccc1 [AB6],LD50,[1],85 mg/kg
same,MIC,Indole-positive Proteus [2]; strain 2075,> 1000 µg/mL
same,MIC,Indole-positive Proteus [2]; strain 2083,> 1000 µg/mL
same,MIC,Indole-positive Proteus [2]; strain 2105,> 1000 µg/mL
same,MIC,Indole-positive Proteus [2]; strain 2410,> 2000 µg/mL
same,MIC,Indole-positive Proteus [2]; strain 2447,> 2000 µg/mL
same,MIC,Indole-positive Proteus [2]; strain 2674,1000 µg/mL
same,MIC,Staph. aureus [3],1000 µg/mL
same,MIC,Salmonella sp. [4],> 1000 µg/mL
same,MIC,Bacillaceae,31.2 µg/mL
same,MIC,Serratia marcescens [5],125 µg/mL
same,MIC,Enterobacter,1000 µg/mL
same,MIC,E.coli; strain 2094,> 1000 µg/mL
same,MIC,E.coli; strain 2096,> 1000 µg/mL
same,MIC,E.coli; strain 2117,> 1000 µg/mL
same,MIC,E.coli; strain 2456,> 1000 µg/mL
same,MIC,E.coli; strain 2568,2000 µg/mL
same,MIC,Pseudomonas aeruginosa [6]; strain 2084,> 1000 µg/mL
same,MIC,Pseudomonas aeruginosa [6]; strain 2458,> 1000 µg/mL
same,MIC,Pseudomonas aeruginosa [6]; strain 2488,1000 µg/mL
same,MIC,Pseudomonas aeruginosa [6]; strain 2508,1000 µg/mL
same,MIC,Pseudomonas aeruginosa [6]; strain 2509,1000 µg/mL
same,MIC,Pseudomonas aeruginosa [6]; strain 2670,1000 µg/mL
same,Bactericide action (growth / no growth),Staph. aureus [7]; contact time 3 min,-
same,Bactericide action (growth / no growth),Staph. aureus [7]; contact time 5 min,-
same,Bactericide action (growth / no growth),Staph. aureus [7]; contact time 10 min,-
same,Bactericide action (growth / no growth),Staph. aureus [7]; contact time 30 min,-
same,Bactericide action (growth / no growth),Staph. aureus [7]; contact time 60 min,-
same,Bactericide action (growth / no growth),Staph. aureus [7]; contact time 120 min,-
same,Bactericide action (growth / no growth),Salmonella sp. [8]; contact time 3 min,-
same,Bactericide action (growth / no growth),Salmonella sp. [8]; contact time 5 min,-
same,Bactericide action (growth / no growth),Salmonella sp. [8]; contact time 10 min,-
same,Bactericide action (growth / no growth),Salmonella sp. [8]; contact time 30 min,-
same,Bactericide action (growth / no growth),Salmonella sp. [8]; contact time 60 min,-
same,Bactericide action (growth / no growth),Salmonella sp. [8]; contact time 120 min,-
same,Bactericide action (growth / no growth),B. subtilis; contact time 3 min,-
same,Bactericide action (growth / no growth),B. subtilis; contact time 5 min,-
same,Bactericide action (growth / no growth),B. subtilis; contact time 10 min,-
same,Bactericide action (growth / no growth),B. subtilis; contact time 30 min,-
same,Bactericide action (growth / no growth),B. subtilis; contact time 60 min,-
same,Bactericide action (growth / no growth),B. subtilis; contact time 120 min,-
same,Bactericide action (growth / no growth),E. coli; contact time 3 min,+
same,Bactericide action (growth / no growth),E. coli; contact time 5 min,+
same,Bactericide action (growth / no growth),E. coli; contact time 10 min,-
same,Bactericide action (growth / no growth),E. coli; contact time 30 min,-
same,Bactericide action (growth / no growth),E. coli; contact time 60 min,-
same,Bactericide action (growth / no growth),E. coli; contact time 120 min,-
same,contact time for total bactericide activity,Indole-positive Proteus [9],≤ 3 min
same,Bactericide action (growth / no growth),Indole-positive Proteus [9]; contact time 3 min,-
same,Bactericide action (growth / no growth),Indole-positive Proteus [9]; contact time 5 min,-
same,Bactericide action (growth / no growth),Indole-positive Proteus [9]; contact time 10 min,-
same,Bactericide action (growth / no growth),Indole-positive Proteus [9]; contact time 30 min,-
same,Bactericide action (growth / no growth),Indole-positive Proteus [9]; contact time 60 min,-
same,Bactericide action (growth / no growth),Indole-positive Proteus [9]; contact time 120 min,-
same,longest time in which it is active,Serratia marcescens [10],30 min
same,Bactericide action (growth / no growth),Serratia marcescens [10]; contact time 3 min,+
same,Bactericide action (growth / no growth),Serratia marcescens [10]; contact time 5 min,+
same,Bactericide action (growth / no growth),Serratia marcescens [10]; contact time 10 min,+
same,Bactericide action (growth / no growth),Serratia marcescens [10]; contact time 30 min,-
same,Bactericide action (growth / no growth),Serratia marcescens [10]; contact time 60 min,-
same,Bactericide action (growth / no growth),Serratia marcescens [10]; contact time 120 min,-
same,contact time for total bactericide activity,Pseudomonas aeruginosa [11]; 100 p.p.m.,≤ 3 min
same,Bactericide action (growth / no growth),"Pseudomonas aeruginosa [11]; contact time 3 min, 100 p.p.m.",-
same,"Bactericide activity (growth / no growth), serum interference test","Pseudomonas aeruginosa [11]; contact time 3 min, with human serum (10%)",+
same,"Bactericide activity (growth / no growth), serum interference test","Pseudomonas aeruginosa [11]; contact time 3 min, without serum",-
same,Bactericide action (growth / no growth),"Pseudomonas aeruginosa [11]; contact time 5 min, 100 p.p.m.",-
same,"Bactericide activity (growth / no growth), serum interference test","Pseudomonas aeruginosa [11]; contact time 5 min, with human serum (10%)",+
same,"Bactericide activity (growth / no growth), serum interference test","Pseudomonas aeruginosa [11]; contact time 5 min, without serum",-
same,Bactericide action (growth / no growth),"Pseudomonas aeruginosa [11]; contact time 10 min, 100 p.p.m.",-
same,"Bactericide activity (growth / no growth), serum interference test","Pseudomonas aeruginosa [11]; contact time 10 min, with human serum (10%)",+
same,"Bactericide activity (growth / no growth), serum interference test","Pseudomonas aeruginosa [11]; contact time 10 min, without serum",-
same,Bactericide action (growth / no growth),"Pseudomonas aeruginosa [11]; contact time 30 min, 100 p.p.m.",-
same,"Bactericide activity (growth / no growth), serum interference test","Pseudomonas aeruginosa [11]; contact time 30 min, with human serum (10%)",+
same,"Bactericide activity (growth / no growth), serum interference test","Pseudomonas aeruginosa [11]; contact time 30 min, without serum",-
same,Bactericide action (growth / no growth),"Pseudomonas aeruginosa [11]; contact time 60 min, 100 p.p.m.",-
same,"Bactericide activity (growth / no growth), serum interference test","Pseudomonas aeruginosa [11]; contact time 60 min, with human serum (10%)",-
same,"Bactericide activity (growth / no growth), serum interference test","Pseudomonas aeruginosa [11]; contact time 60 min, without serum",-
same,Bactericide action (growth / no growth),"Pseudomonas aeruginosa [11]; contact time 120 min, 100 p.p.m.",-
same,"Bactericide activity (growth / no growth), serum interference test","Pseudomonas aeruginosa [11]; contact time 120 min, with human serum (10%)",-
same,"Bactericide activity (growth / no growth), serum interference test","Pseudomonas aeruginosa [11]; contact time 120 min, without serum",-
